Assay [1] deals with osteoarthritis-induced New Zealand white rabbits. The assay is described as follows: Prostaglandin E2 levels in joint synovial fluids (EIA). The assay is classed as in vivo. From the text:
(§1) To prepare an osteoarthritis animal model, New Zealand white rabbits underwent anterior cruciate ligament transection (ACLT) in joints of their two hind legs. After three days, the rabbits were forced to sustain movement for four weeks in a space of 5×5 m^3 to induce substantial osteoarthritis. […] The following Examples 3 to 10 were all performed using joints of the osteoarthritis-induced New Zealand white rabbits prepared as in this Example 2.
Using the joint synovial fluids prepared in Example 3, prostaglandin E2 (PGE2) levels in synovial fluids were measured using an enzyme immunoassay (EIA) kit (DE0100, R&D Systems). 100 μl of a 1:10 dilution of a synovial fluid sample was mixed with 50 μl of a conjugate and 50 μl of an antibody in a plate provided in the kit, and was incubated with agitation at room temperature for two hours. Then, the plate was washed with a washing buffer, and 200 μl of a pNPP solution was added thereto, followed by incubation at room temperature for one hour. Thereafter, absorbance was measured at 405 nm.

The test system is the same in assay [2]. The assay is described as follows: Collagen levels in joint synovial fluids (Sirius Red staining). The assay is classed as in vivo.
Source text: as §1
Total collagen levels in synovial fluids were measured by Sirius Red staining (Heide T. R. et al., Histochem. […]. Then, total collagen levels were determined by measuring absorbance at 550 nm. A standard curve was obtained by measuring absorbance at 550 nm for collagen type I (C1188, Sigma) of various concentrations of 0, 100, 200, 300, 400 and 500 μg. Using the standard curve, collagen levels in synovial fluids were determined.

The test system is the same in assay [3]. The assay is described as follows: H&E staining and safranin-O staining of joint cartilage. The assay is classed as in vivo. As to conditions: apigenin treatment group compared to control group.
Source text: Distal femurs were collected from experimental animals and fixed with 4% formalin (F8775, Sigma) for over 24 hrs. An area of the distal femur to be analyzed was sectioned into a 5-mm thickness, decalcified with 5% nitric acid (25, 811-3, Sigma) for over 24 hrs and embedded into paraffin to provide a paraffin block. The paraffin block was sectioned, and the resulting 4-μm sections were subjected to H&E staining and staining with a cartilage-specific dye, safranin-O (S2255, Sigma), and observed under an optical microscope to evaluate the condition of cartilage.
For assay [4] the test system is unchanged. The assay is described as follows: Nitric oxide levels in synovial fluids (Griess reaction). The assay is classed as in vivo.
Source text: as §1
A synovial fluid and a Griess reagent were mixed at a ratio of 1:1 (100 μl: 100 μl) and allowed to stand at room temperature for 10 min, and absorbance was measured at 540 nm using a spectrophotometer (Power Wave X340, Bio-Tek). The Griess reagent was prepared in a final volume of 10 ml using 0.1 g of sulfanilamide (S9251, Sigma), 0.5 ml of phosphoric acid (P6560, Sigma) and 0.01 g of N-naphthyl-diamine-H-chloride (102397, ICN). A quantitative curve for nitrite was obtained using sodium nitrite (S2252, Sigma).
For orientation: Griess reagent forms a coloured azo dye with nitrite.

For another assay, the system named is iNOS. Kind of assay: Western blotting of iNOS expression in LPS-treated RAW 264.7. The assay is classed as cell-based, mice. The settings on record: LPS treatment = 100%, upon apigenin treatment. As to the method: (§2) A macrophage cell line derived from mice, RAW 264.7 (KCLB 40071), was purchased from the Korean Cell Line Bank. RAW 264.7 cells were seeded in a density of 3×10^6 cells onto 60-mm culture dishes containing DMEM (Dulbecco's Modified Eagle Medium, 12800-017, Gibco) supplemented with 10% FBS (fetal bovine serum, 26140-079, Gibco), 100 U/ml of penicillin and 100 μg/ml streptomycin (15140-122, Gibco), and cultured at 37° C. under 5% CO2 and humidity for 24 hrs. To induce NO production, RAW 264.7 cells were treated with 500 ng/ml of an E. coli cell wall component, lipopolysaccharide (LPS, […], Sigma). […] Herein, LPS was dissolved in distilled water, and apigenin was dissolved in DMSO. Then, the culture medium and a Griess reagent were mixed at a ratio of 1:1 (100 μl: 100 μl) and allowed to stand at room temperature for 10 min. Thereafter, absorbance was measured at 540 nm using a spectrophotometer (Power Wave X340, Bio-Tek). RAW 264.7 cells were treated under the same conditions as in Example 12. […] Herein, for IκBα expression, the cells were treated with LSP for only two hours. […] After protein concentrations in cell lysates were measured, […] protein samples were separated on an 8-16% SDS (sodium dodecyl sulfate) polyacrylamide gel (EC60452, NOVEX). […]
In general terms: In western blotting, separated proteins are transferred to a membrane and probed.

In the next assay the test system is IκBα. The assay is described as follows: Western blotting of IκBα expression in LPS-treated RAW 264.7. The assay is classed as cell-based, mice. The settings on record: normal = 100%, LPS (two hours) 18.56%, 10 μM of apigenin. As to the method: as §2
Where [5] appears, read: apigenin-treated right leg (+), four weeks after drug injection.
[6] abbreviates: apigenin-treated right leg (+), four weeks after drug injection, listed as Apigenin.
Where [7] appears, read: apigenin-treated right leg (+), two weeks after drug injection.
Setting [8] is: non-treated left leg (−) of apigenin treatment group, four weeks after drug injection.
The mark [9] stands for this setting: non-treated left leg (−) of apigenin treatment group, four weeks after drug injection, listed as Apigenin.
The mark [10] stands for this setting: non-treated left leg (−) of apigenin treatment group, two weeks after drug injection.

`O=c1cc(-c2ccc(O)cc2)oc2cc(O)cc(O)c12` [apigenin, 4′,5,7-trihydroxyflavone]: the “PGE2 levels in joint synovial fluids” value in assay [1] (setting [5]) is “about 196.71 pg/ml”; in assay [1] (setting [6]) it was 196.71 ± 0.52 pg/mL; in assay [1] (setting [7]) it was 183.26 ± 0.2 pg/mL; in assay [1] (setting [8]), “about 753.2 pg/ml”; in assay [1] (setting [9]), 509.2 ± 9.2 pg/mL; in assay [1] (setting [10]), 543.3 ± 1.13 pg/mL. Further, the “Collagen levels in joint synovial fluids” value in assay [2] (setting [5]) is 406.56 µg/mL; in assay [2] (setting [6]) it was 406.6 ± 0.63 µg/mL; in assay [2] (setting [7]), 397.4 ± 0.69 µg/mL; in assay [2] (setting [8]), “about 1019.2 μg/ml”; in assay [2] (setting [9]), 1019.2 ± 0.79 µg/mL; in assay [2] (setting [10]) it was 749.4 ± 0.46 µg/mL. Besides, in assay [3], the “condition of cartilage by H&E and safranin-O staining” value is given as “damaged areas of cartilage were found to be restored”. The “NO levels in synovial fluids” value in assay [4] (setting [5]) is “about 6.01 μM”; in assay [4] (setting [6]) it was 6.01 ± 0.88 µM; in assay [4] (setting [7]), 7.53 ± 4.66 µM; in assay [4] (setting [8]) it was 5.5 ± 4.59 µM; in assay [4] (setting [10]), 0.65 ± 0.06 µM. In the assay with iNOS, this compound came in with an iNOS expression level of 0%. For the same compound, in the assay with IκBα, the IκBα expression level turned out to be 75.82%.
